The record followed here is paper PMC3131601, “A Novel Cold-Active Lipase from Candida albicans: Cloning, Expression and Characterization of the Recombinant Enzyme” (International Journal of Molecular Sciences, 2011).

The structures appear in SMILES notation.

The assay concerns T1, Lip5-DM (recombinant Lip5, CALip5).
T1 construct: putative 14-residue signal peptide removed; secreted from Pichia pastoris X-33 (pGAPZalphaA), about 50 kDa
Briefly: p-nitrophenol release at […] nm, Lineweaver-Burk. It is filed as biochemical, Candida albicans. The conditions noted are these: 100 mM Na2HPO4-NaH2PO4 pH 6.0; kinetics run at 5, 15 and 25 °C, temperature of table values not stated.
Take `CCCCCCCCCCCCCCCC(=O)Oc1ccc([N+](=O)[O-])cc1` [C16, p-NP-palmitate]: the Michaelis-Menten constant (Km) is 360 µM.

As for `CCCCCCCC(=O)Oc1ccc([N+](=O)[O-])cc1` [C8, p-NP-caprylate], the Km is 270 µM.

Take `CCCCCCCCCCCC(=O)Oc1ccc([N+](=O)[O-])cc1` [C12, p-NP-laurate]: the Michaelis constant (Km) was determined as 500 µM.

For `CCCC(=O)Oc1ccc([N+](=O)[O-])cc1` [C4, p-NP-butyrate], the Km came to 410 µM.
